Patent US20250197351A1, “C4-CARBOXYLIC ACID-S[…] DERIVATIVES AND METHODS OF USING” (priority 2022, published 2025)
Where “and” joins values, the source holds several entries; their conditions need not be identical. Identical values can stand only once.

Legend:
5-HT1A receptor = target: T1, 5-HT1A receptor (Homo sapiens, UniProt P08908); test: cAMP-Glo assay of 5-HT1A receptor modulation, CHO-K1/5-HT1A/Ga15 (+5-HT1A) vs CHO-K1/Ga15 (−5-HT1A) cells; type: cell-based; details: +5-HT1A vs −5-HT1A CHO-K1 cells; 4 μM forskolin; increasing ligand concentration
T1 construct: host or cells: CHO-K1 (co-expressing Ga15)
T1 sequence (P08908 1-422): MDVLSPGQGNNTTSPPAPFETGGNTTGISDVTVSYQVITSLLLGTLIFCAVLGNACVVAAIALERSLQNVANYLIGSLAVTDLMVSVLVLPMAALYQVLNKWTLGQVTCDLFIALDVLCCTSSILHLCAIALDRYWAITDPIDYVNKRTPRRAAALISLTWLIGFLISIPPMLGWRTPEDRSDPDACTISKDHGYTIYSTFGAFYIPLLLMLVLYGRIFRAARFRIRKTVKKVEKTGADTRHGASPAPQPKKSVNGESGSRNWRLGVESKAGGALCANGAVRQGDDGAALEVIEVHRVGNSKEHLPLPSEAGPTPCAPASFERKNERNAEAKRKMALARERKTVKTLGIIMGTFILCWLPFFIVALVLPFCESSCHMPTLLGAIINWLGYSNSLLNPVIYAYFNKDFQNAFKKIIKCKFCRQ

[1] = Mouse pharmacokinetic (PK) study, parent compound and psilocin metabolite in plasma; type: in vivo; details: for bioavailability: male, C57Bl/6, mouse, plasma, po; for bioavailability / F(%): parent compound, AUC0-tlast used; for AUC0-inf/Dose / AUC0-tlast/Dose / Cmax/Dose: parent compound in plasma; for Plasma concentration of parent compound / Plasma concentration of psilocin: individual animals
Description: Briefly, the procedure was as follows. […] 19, 2022.

[2] = target: T2, 5-HT2A receptor (5-HT2AR) (Mus musculus, UniProt P35363); test: Drug-induced Head Twitch Response (HTR); type: in vivo; details: 1 mg/kg i.p., 15-to-30-minute window post-drug, relative to vehicle
T2 construct: host or cells: C57BL/6 mice, in vivo (neuronal receptor)
T2 sequence (P35363 whole entry): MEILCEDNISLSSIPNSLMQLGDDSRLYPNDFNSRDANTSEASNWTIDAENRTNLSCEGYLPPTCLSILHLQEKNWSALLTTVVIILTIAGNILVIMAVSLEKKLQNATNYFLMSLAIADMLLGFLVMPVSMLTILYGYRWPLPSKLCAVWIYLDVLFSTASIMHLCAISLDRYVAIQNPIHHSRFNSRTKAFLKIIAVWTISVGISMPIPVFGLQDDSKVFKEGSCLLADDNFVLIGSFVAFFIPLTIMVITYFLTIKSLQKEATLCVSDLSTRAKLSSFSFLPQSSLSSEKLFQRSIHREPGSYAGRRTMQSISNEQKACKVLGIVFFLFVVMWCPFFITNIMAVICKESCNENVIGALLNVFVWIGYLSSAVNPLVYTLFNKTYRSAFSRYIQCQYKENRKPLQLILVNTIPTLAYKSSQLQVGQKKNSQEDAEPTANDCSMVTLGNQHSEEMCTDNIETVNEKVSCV

5-HT2A receptor = 5-HT2A receptor (Homo sapiens, UniProt P28223); test: [3H]ketanserin competition binding assay (SPA); details: 1 nM [3H]ketanserin; control ligands
5-HT2A receptor, sequence (P28223 whole entry): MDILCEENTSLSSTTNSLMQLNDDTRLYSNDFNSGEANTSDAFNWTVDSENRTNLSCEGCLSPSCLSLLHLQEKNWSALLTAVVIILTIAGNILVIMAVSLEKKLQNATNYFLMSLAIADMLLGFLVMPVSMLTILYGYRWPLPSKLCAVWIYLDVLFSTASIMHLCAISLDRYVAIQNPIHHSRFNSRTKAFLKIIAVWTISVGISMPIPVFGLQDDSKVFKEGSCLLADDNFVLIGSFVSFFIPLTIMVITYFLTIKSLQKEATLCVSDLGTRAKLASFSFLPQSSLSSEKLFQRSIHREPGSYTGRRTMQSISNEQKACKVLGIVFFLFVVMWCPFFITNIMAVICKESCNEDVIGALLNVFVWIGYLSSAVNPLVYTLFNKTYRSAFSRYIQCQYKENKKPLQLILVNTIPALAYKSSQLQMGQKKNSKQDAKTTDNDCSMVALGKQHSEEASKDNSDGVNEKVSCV

[3] = 1 mg/kg i.v., each animal, 1 mg/kg
[4] = 1 mg/kg p.o., each animal, 1 mg/kg
[5] = 3 mg/kg p.o., each animal, 3 mg/kg
[6] = 10 mg/kg p.o., each animal, 10 mg/kg
[7] = mouse, prodrug 1 mg/kg i.v., 8 h, BLQ = below 0.2 ng/mL
[8] = mouse, prodrug 1 mg/kg p.o. (psilocybin: 1.56 mg/kg), 8 h, BLQ = below 0.2 ng/mL
[9] = mouse, prodrug 1 mg/kg p.o. (psilocybin: 1.56 mg/kg), 24 h, BLQ = below 0.2 ng/mL
[10] = mouse, prodrug 3 mg/kg p.o., 24 h, BLQ = below 0.2 ng/mL
[11] = mouse, prodrug 10 mg/kg p.o., 24 h, BLQ = below 0.2 ng/mL

With `CN(C)CCc1c[nH]c2cccc(OC(=O)c3ccc(Br)cc3)c12` [C(I)] the “5-HT1A receptor modulation (reduction of forskolin-induced cAMP)” value (5-HT1A receptor) was “mild receptor modulation at higher ligand concentrations”, the bioavailability ([1]; 1 mg/kg, 1 mg/kg p.o., M37 (i.v. group) considered as an outlier, mean ± SD) was 2.3 ± 1.76% and the bioavailability ([1]; 3 mg/kg, 3 mg/kg p.o., M37 (i.v. group) considered as an outlier, mean ± SD) was 3.18 ± 0.189%. For the same compound, the bioavailability ([1]; 3 mg/kg, 3 mg/kg p.o., if M37 (i.v. group) is considered as an outlier, each animal) was 3.02%, the bioavailability ([1]; 10 mg/kg, 10 mg/kg p.o., M37 (i.v. group) considered as an outlier, mean ± SD) was 3.22 ± 0.731% and the bioavailability ([1]; 10 mg/kg, 10 mg/kg p.o., if M37 (i.v. group) is considered as an outlier, each animal) was 2.71%. For the same compound, the Plasma concentration ([1]; parent C(I), 1 mg/kg i.v., 8 h, each animal, BLQ = below 0.5 ng/mL, 1 mg/kg) was “BLQ (2×) and No Peak”, the Plasma concentration ([1]; parent C(I), 1 mg/kg p.o., 1 h, each animal, BLQ = below 0.5 ng/mL, 1 mg/kg) was “BLQ” and the Plasma concentration ([1]; parent C(I), 1 mg/kg p.o., 2 h, each animal, BLQ = below 0.5 ng/mL, 1 mg/kg) was “BLQ”. The Plasma concentration ([1]; parent C(I), 1 mg/kg p.o., 4 h, each animal, BLQ = below 0.5 ng/mL, 1 mg/kg) was “BLQ”, the Plasma concentration ([1]; parent C(I), 1 mg/kg p.o., 6 h, each animal, BLQ = below 0.5 ng/mL) was “BLQ” and the Plasma concentration ([1]; parent C(I), 1 mg/kg p.o., 8 h, each animal, BLQ = below 0.5 ng/mL) was “BLQ”. The Plasma concentration ([1]; parent C(I), 1 mg/kg p.o., 24 h, each animal, BLQ = below 0.5 ng/mL, 1 mg/kg) was “No Peak and No (2×)”, the Plasma concentration ([1]; parent C(I), 3 mg/kg p.o., 1 h, each animal, BLQ = below 0.5 ng/mL, 3 mg/kg) was 1.33 ng/mL and the Plasma concentration ([1]; parent C(I), 3 mg/kg p.o., 6 h, each animal, BLQ = below 0.5 ng/mL, 3 mg/kg) was 0.250 ng/mL. The Plasma concentration ([1]; parent C(I), 3 mg/kg p.o., 8 h, each animal, BLQ = below 0.5 ng/mL) was “BLQ”, the Plasma concentration ([1]; parent C(I), 3 mg/kg p.o., 24 h, each animal, BLQ = below 0.5 ng/mL) was “No Peak” and the Plasma concentration ([1]; parent C(I), 10 mg/kg p.o., 4 h, each animal, BLQ = below 0.5 ng/mL, 10 mg/kg) was 3.01 ng/mL. The Plasma concentration ([1]; parent C(I), 10 mg/kg p.o., 24 h, each animal, BLQ = below 0.5 ng/mL) was “No”, the AUC0-inf/Dose [1, 3] was 1014 kg·ng·h/mL/mg and 64.4 kg·ng·h/mL/mg and 51.9 kg·ng·h/mL/mg and the AUC0-tlast/Dose [1, 3] was 1006 kg·ng·h/mL/mg and 63.7 kg·ng·h/mL/mg and 51.4 kg·ng·h/mL/mg. The AUC0-tlast/Dose ([1]; 1 mg/kg i.v., mean of n = 2 (without the possible outlier M37)) was 57.6 (n = 2) h*kg*ng/mL/mg, the AUC0-inf/Dose ([1]; 1 mg/kg i.v., mean ± SD) was 377 ± 552 kg·ng·h/mL/mg and the AUC0-tlast/Dose ([1]; 1 mg/kg i.v., mean ± SD) was 374 ± 548 kg·ng·h/mL/mg. For the same compound, the AUC0-tlast/Dose [1, 4] was 2.09 kg·ng·h/mL/mg and 0.169 kg·ng·h/mL/mg and 1.75 kg·ng·h/mL/mg, the Cmax/Dose [1, 4] was 0.816 kg·ng/mL/mg and 0.54 kg·ng/mL/mg and 1.28 kg·ng/mL/mg and the AUC0-tlast/Dose ([1]; 1 mg/kg p.o., mean ± SD) was 1.34 ± 1.02 kg·ng·h/mL/mg. For the same compound, the Cmax/Dose ([1]; 1 mg/kg p.o., mean ± SD) was 0.877 ± 0.376 kg·ng/mL/mg, the AUC0-tlast/Dose [1, 5] was 1.75 kg·ng·h/mL/mg and 1.82 kg·ng·h/mL/mg and 1.97 kg·ng·h/mL/mg and the Cmax/Dose [1, 5] was 0.650 kg·ng/mL/mg and 0.720 kg·ng/mL/mg and 0.780 kg·ng/mL/mg. For the same compound, the AUC0-tlast/Dose ([1]; 3 mg/kg p.o., mean ± SD) was 1.85 ± 0.110 kg·ng·h/mL/mg, the Cmax/Dose ([1]; 3 mg/kg p.o., mean ± SD) was 0.717 ± 0.0651 kg·ng/mL/mg and the AUC0-tlast/Dose [1, 6] was 1.58 kg·ng·h/mL/mg and 1.68 kg·ng·h/mL/mg and 2.36 kg·ng·h/mL/mg. For the same compound, the Cmax/Dose [1, 6] was 0.720 kg·ng/mL/mg and 0.710 kg·ng/mL/mg and 1.09 kg·ng/mL/mg, the AUC0-tlast/Dose ([1]; 10 mg/kg p.o., mean ± SD) was 1.87 ± 0.425 kg·ng·h/mL/mg and the Cmax/Dose ([1]; 10 mg/kg p.o., mean ± SD) was 0.840 ± 0.217 kg·ng/mL/mg. For the same compound, the “F(%)” value ([1]; 1 mg/kg p.o., if M37 (i.v. group) is considered as an outlier, each animal, 1 mg/kg) was 3.01%, the “F(%)” value ([1]; 10 mg/kg p.o., if M37 (i.v. group) is considered as an outlier, each animal, 10 mg/kg) was 2.90% and the Plasma concentration ([1]; psilocin, prodrug 1 mg/kg i.v., 6 h, each animal, BLQ = below 0.2 ng/mL) was “BLQ”. The Plasma concentration ([1]; psilocin, prodrug 1 mg/kg i.v., 8 h, each animal, BLQ = below 0.2 ng/mL) was “BLQ”, the Plasma concentration ([1]; psilocin, prodrug 1 mg/kg p.o., 8 h, each animal, BLQ = below 0.2 ng/mL) was “BLQ” and the Plasma concentration ([1]; psilocin, prodrug 1 mg/kg p.o., 24 h, each animal, BLQ = below 0.2 ng/mL) was “No Peak (2×) and BLQ”. The Plasma concentration ([1]; psilocin, prodrug 3 mg/kg p.o., 24 h, each animal, BLQ = below 0.2 ng/mL) was “No Peak”, the Plasma concentration ([1]; psilocin, prodrug 10 mg/kg p.o., 24 h, each animal, BLQ = below 0.2 ng/mL) was “BLQ” and the “Head Twitch Response (HTR) incidence” value [2] was “Elevated incidences of HTR”.
In the case of `COc1ccc(C(=O)Oc2cccc3[nH]cc(CCN(C)C)c23)cc1` [C(V)], the “5-HT1A receptor modulation (reduction of forskolin-induced cAMP)” value (5-HT1A receptor) is reported as “mild receptor modulation at higher ligand concentrations”, the “Detection of parent compound in plasma after i.v. administration” value ([1]; mouse, 1 mg/kg i.v.) is reported as “only detectable in i.v. administered animals” and the “Plasma concentration of parent compound” value ([1]; mouse, 1 mg/kg i.v., 0.25 h, BLQ = below 0.5 ng/mL (C(V)), 1 mg/kg) is reported as “BLQ”. The “Plasma concentration of parent compound” value ([1]; mouse, 1 mg/kg i.v., 0.5 h, BLQ = below 0.5 ng/mL (C(V)), 1 mg/kg) was “BLQ and No Peak (2×)”, the “Plasma concentration of parent compound” value ([1]; mouse, 1 mg/kg i.v., 1 h) was “No Peak” and the “Plasma concentration of parent compound” value ([1]; mouse, 1 mg/kg i.v., 2 h) was “No Peak”. The “Plasma concentration of parent compound” value ([1]; mouse, 1 mg/kg i.v., 4 h) was “No Peak”, the “Plasma concentration of parent compound” value ([1]; mouse, 1 mg/kg i.v., 6 h) was “No Peak” and the “Plasma concentration of parent compound” value ([1]; mouse, 1 mg/kg i.v., 8 h) was “No Peak”. For the same compound, the “Detection of parent compound in plasma after oral administration” value ([1]; mouse, orally administered, any dose (1, 3, 10 mg/kg)) was “not detectable”, the “Plasma concentration of psilocin” value [1, 7] was “BLQ” and the “Plasma concentration of psilocin” value [1, 8] was “BLQ”. For the same compound, the “Plasma concentration of psilocin” value [1, 9] was “No Peak and BLQ (2×)”, the “Plasma concentration of psilocin” value [1, 10] was “No Peak and BLQ (2×)” and the “Plasma concentration of psilocin” value [1, 11] was “BLQ (2×) and No Peak”. The “Head Twitch Response (HTR) incidence” value [2] was “Elevated incidences of HTR”.
For `CN(C)CCc1c[nH]c2cccc(O)c12` [psilocin, reference compound], the “Binding at 5-HT2A receptor in competition assay” value (5-HT2A receptor) was “binding” and the “5-HT1A receptor modulation (reduction of forskolin-induced cAMP)” value (5-HT1A receptor) was “reduction in cAMP levels”.
With `N[C@@H](Cc1c[nH]c2ccccc12)C(=O)O` [tryptophan, reference compound] the “Binding at 5-HT2A receptor in competition assay” value (5-HT2A receptor) was “no binding” and the “5-HT1A receptor modulation (reduction of forskolin-induced cAMP)” value (5-HT1A receptor) was “no reduction in cellular cAMP levels”.
In the case of `CN(C)CCc1c[nH]c2cccc(OC(=O)c3c(F)c(F)c(F)c(F)c3F)c12` [C(VI)], the “5-HT1A receptor modulation (reduction of forskolin-induced cAMP)” value (5-HT1A receptor) is reported as “no receptor modulation at higher ligand concentrations”, the “Detection of parent compound in plasma” value ([1]; mouse, any animals at any dose (i.v. and oral)) is reported as “not detectable in any animals at any dose” and the “Plasma concentration of psilocin” value [1, 7] is reported as “BLQ”. The “Plasma concentration of psilocin” value [1, 8] was “BLQ”, the “Plasma concentration of psilocin” value [1, 9] was “BLQ and No Peak (2×)” and the “Plasma concentration of psilocin” value [1, 10] was “BLQ (2×) and No Peak”. For the same compound, the “Plasma concentration of psilocin” value [1, 11] was “BLQ” and the “Head Twitch Response (HTR) incidence” value [2] was “Elevated incidences of HTR”.
